Laboratory results: patent publication US8952024B2, “Herbicidal pyrimidone derivatives” (E I du Pont de Nemours and Company, priority 2009, dated 2015)

Key:
Assay type in all cases: in vivo
[1] = system: wild oat (Avena fatua); assay: Test B pre-/postemergence plant response; settings: Postemergence
Procedure, shortened: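 Seeds were sown in loam soil/sand blend and treated preemergence with compound in non-phytotoxic solvent mixture containing surfactant; postemergence sprays, same formulation, went onto plants 2 to 18 cm (1- to 4-leaf stage) in peat-based planting medium. Greenhouse 13 to 15 days, then visual rating versus untreated controls, 0 (no effect) to 100 (complete control).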

[2] = system: quackgrass (Elytrigia repens); assay: Test D pre-/postemergence plant response
From the text: (§1) Seeds of plant species selected from bermudagrass (Cynodon dactylon), Surinam grass (Brachiaria decumbens), large crabgrass (Digitaria sanguinalis), green foxtail (Setaria viridis), goosegrass (Eleusine indica), johnsongrass (Sorghum halepense), kochia (Kochia scoparia), morningglory (pitted morningglory, Ipomoea lacunosa), nutsedge (purple nutsedge, Cyperus rotundus), ragweed (common ragweed, Ambrosia elatior), black mustard (Brassica nigra), guineagrass (Panicum maximum), dallisgrass (Paspalum dilatatum), barnyardgrass (Echinochloa crus-galli), sandbur (southern sandbur, Cenchrus echinatus), sowthistle (common sowthistle, Sonchus oleraceous), prickly sida (Sida spinosa), Italian ryegrass (Lolium multiflorum), purslane (common purslane, Portulaca oleracea), signalgrass (broadleaf signalgrass, Brachiaria platyphylla), groundsel (common groundsel, Senecio vulgaris), chickweed (common chickweed, Stellaria media), dayflower (Virginia (VA) dayflower, Commelina virginica), bluegrass (annual bluegrass, Poa annua), naked crabgrass (Digitaria nuda), itchgrass (Rottboellia cochinchinensis), quackgrass (Elytrigia repens), field bindweed (Convolvulus arvensis), spanishneedles (Bidens bipinnata), mallow (common mallow, Malva sylvestris) and Russian thistle (Salsola kali), were planted into a blend of loam soil and sand and treated preemergence with test chemicals formulated in a non-phytotoxic solvent mixture which included a surfactant. At the same time, plants from these weed species were treated with postemergence applications of the test chemicals formulated in the same manner. Plants ranged in height from 2 to 18 cm (1- to 4-leaf stage) for postemergence treatments.
(§2) Treated plants and controls were maintained in a greenhouse for 14 to 21 days, after which time all species were visually evaluated and compared to controls. Plant response ratings, summarized in Table D, are based on a scale of 0 to 100 where 0 is no effect and 100 is complete control. A dash (-) response means no test result.

[3] = system: dallisgrass (Paspalum dilatatum); assay: Test D pre-/postemergence plant response
From the text: as §1, §2

[4] = system: groundsel (common groundsel, Senecio vulgaris); assay: Test D pre-/postemergence plant response; settings: Postemergence
From the text: as §1, §2

[5] = system: johnsongrass (Sorghum halepense); assay: Test D pre-/postemergence plant response
From the text: as §1, §2

[6] = system: barnyardgrass (Echinochloa crus-galli); assay: Test D pre-/postemergence plant response
From the text: as §1, §2

[7] = system: ragweed (common ragweed, Ambrosia elatior); assay: Test D pre-/postemergence plant response
From the text: as §1, §2

[8] = system: sandbur (southern sandbur, Cenchrus echinatus); assay: Test D pre-/postemergence plant response
From the text: as §1, §2

[9] = system: large crabgrass (Digitaria sanguinalis); assay: Test D pre-/postemergence plant response
From the text: as §1, §2

[10] = 31 g ai/ha, 0 to 100 scale (0 no effect, 100 complete control)
[11] = 62 g ai/ha, scale 0 to 100 (0 no effect, 100 complete control)
[12] = 250 g ai/ha, scale 0 to 100 (0 no effect, 100 complete control), 13 to 15 days
[13] = Postemergence, 31 g ai/ha, scale 0 to 100
[14] = Postemergence, 62 g ai/ha, scale 0 to 100 (0 no effect, 100 complete control)
[15] = Postemergence, 125 g ai/ha, scale 0 to 100 (0 no effect, 100 complete control)
[16] = Postemergence, 16 g ai/ha, scale 0 to 100
[17] = Preemergence, 16 g ai/ha, scale 0 to 100, 0 no effect, 100 complete control
[18] = Preemergence, 31 g ai/ha, scale 0 to 100 (0 no effect, 100 complete control)
[19] = Preemergence, 125 g ai/ha, scale 0 to 100
[20] = Preemergence, 62 g ai/ha, scale 0 to 100
[21] = 125 g ai/ha, scale 0 to 100 (0 no effect, 100 complete control)
[22] = Postemergence, 31 g ai/ha, scale 0 to 100 (0 no effect, 100 complete control)
[23] = Postemergence, 250 g ai/ha, scale 0 to 100 (0 no effect, 100 complete control)
[24] = 250 g ai/ha, scale 0 to 100 (0 no effect, 100 complete control)

## COCCn1c(-c2cccc(C)c2)ncc(C(=O)C2=C(O)C3CCC(C3)C2=O)c1=O (stereo not drawn) [Compound 233]
[1]; [10]
  Plant response rating, Oat, Wild: 30
[1]; [11]
  Plant response rating, Oat, Wild: 35
[1]; [12]
  Plant response rating, Oat, Wild: 60
[2]; [13]
  Plant response rating, Quackgrass: 0
[2]; [14]
  Plant response rating, Quackgrass: 10
[2]; [15]
  Plant response rating, Quackgrass: 25
[2]; [16]
  Plant response rating, Quackgrass: 0
[2]; [17]
  Plant response rating, Quackgrass: 0
[2]; [18]
  Plant response rating, Quackgrass: 0
[2]; [19]
  Plant response rating, Quackgrass: 0
[3]; [13]
  Plant response rating, Dallisgrass: 10
[3]; [14]
  Plant response rating, Dallisgrass: 10
[3]; [15]
  Plant response rating, Dallisgrass: 35
[3]; [16]
  Plant response rating, Dallisgrass: 0
[3]; [17]
  Plant response rating, Dallisgrass: 0
[3]; [18]
  Plant response rating, Dallisgrass: 0
[3]; [20]
  Plant response rating, Dallisgrass: 0
[3]; [19]
  Plant response rating, Dallisgrass: 35
[4]; 31 g ai/ha, scale 0 to 100
  Plant response rating, Groundsel: 50
[4]; [11]
  Plant response rating, Groundsel: 90
[4]; [21]
  Plant response rating, Groundsel: 100
[4]; 16 g ai/ha, scale 0 to 100
  Plant response rating, Groundsel: 30
[5]; [13]
  Plant response rating, Johnsongrass: 35
[5]; [14]
  Plant response rating, Johnsongrass: 50
[5]; [15]
  Plant response rating, Johnsongrass: 50
[5]; [16]
  Plant response rating, Johnsongrass: 20
[5]; [17]
  Plant response rating, Johnsongrass: 0
[5]; [18]
  Plant response rating, Johnsongrass: 0
[5]; [20]
  Plant response rating, Johnsongrass: 20
[5]; [19]
  Plant response rating, Johnsongrass: 65
[6]; [22]
  Plant response rating, Barnyardgrass: 75
[6]; [14]
  Plant response rating, Barnyardgrass: 85
[6]; [15]
  Plant response rating, Barnyardgrass: 85
[6]; [16]
  Plant response rating, Barnyardgrass: 65
[6]; [17]
  Plant response rating, Barnyardgrass: 0
[6]; [18]
  Plant response rating, Barnyardgrass: 0
[6]; [20]
  Plant response rating, Barnyardgrass: 5
[6]; [19]
  Plant response rating, Barnyardgrass: 40
[7]; [13]
  Plant response rating, Ragweed: 75
[7]; [14]
  Plant response rating, Ragweed: 75
[7]; [15]
  Plant response rating, Ragweed: 98
[7]; [16]
  Plant response rating, Ragweed: 65
[7]; [17]
  Plant response rating, Ragweed: 50
[7]; [18]
  Plant response rating, Ragweed: 70
[7]; [19]
  Plant response rating, Ragweed: 98
[7]; Preemergence, rate not given, scale 0 to 100, 0 no effect, 100 complete control
  Plant response rating, Ragweed: 95
[8]; [13]
  Plant response rating, Sandbur: 65
[8]; [14]
  Plant response rating, Sandbur: 70
[8]; [15]
  Plant response rating, Sandbur: 75
[8]; [16]
  Plant response rating, Sandbur: 30
[8]; [17]
  Plant response rating, Sandbur: 0
[8]; [18]
  Plant response rating, Sandbur: 0
[8]; [19]
  Plant response rating, Sandbur: 85
[9]; [13]
  Plant response rating, Crabgrass, Large: 40
[9]; [14]
  Plant response rating, Crabgrass, Large: 50
[9]; [15]
  Plant response rating, Crabgrass, Large: 60
[9]; [16]
  Plant response rating, Crabgrass, Large: 20
[9]; [17]
  Plant response rating, Crabgrass, Large: 0
[9]; [18]
  Plant response rating, Crabgrass, Large: 5
[9]; [20]
  Plant response rating, Crabgrass, Large: 25
[9]; [19]
  Plant response rating, Crabgrass, Large: 90

## COCCn1c(-c2cccc(F)c2)ncc(C(=O)C2=C(O)C3CCC(C3)C2=O)c1=O (stereo not drawn) [Compound 235]
[1]; [10]
  Plant response rating, Oat, Wild: 35
[1]; [11]
  Plant response rating, Oat, Wild: 50
[1]; [12]
  Plant response rating, Oat, Wild: 95
[2]; [13]
  Plant response rating, Quackgrass: 5
[2]; [14]
  Plant response rating, Quackgrass: 30
[2]; [15]
  Plant response rating, Quackgrass: 40
[2]; [23]
  Plant response rating, Quackgrass: 70
[3]; [13]
  Plant response rating, Dallisgrass: 70
[3]; [14]
  Plant response rating, Dallisgrass: 75
[3]; [15]
  Plant response rating, Dallisgrass: 80
[3]; [23]
  Plant response rating, Dallisgrass: 80
[4]; 31 g ai/ha, scale 0 to 100
  Plant response rating, Groundsel: 100
[4]; [11]
  Plant response rating, Groundsel: 100
[4]; [21]
  Plant response rating, Groundsel: 100
[4]; [24]
  Plant response rating, Groundsel: 100
[5]; [13]
  Plant response rating, Johnsongrass: 70
[5]; [14]
  Plant response rating, Johnsongrass: 70
[5]; [15]
  Plant response rating, Johnsongrass: 85
[5]; [23]
  Plant response rating, Johnsongrass: 85
[6]; [22]
  Plant response rating, Barnyardgrass: 80
[6]; [14]
  Plant response rating, Barnyardgrass: 80
[6]; [15]
  Plant response rating, Barnyardgrass: 95
[6]; [23]
  Plant response rating, Barnyardgrass: 95
[7]; [13]
  Plant response rating, Ragweed: 70
[7]; [14]
  Plant response rating, Ragweed: 70
[7]; [15]
  Plant response rating, Ragweed: 80
[7]; [23]
  Plant response rating, Ragweed: 80
[8]; [13]
  Plant response rating, Sandbur: 75
[8]; [14]
  Plant response rating, Sandbur: 75
[8]; [15]
  Plant response rating, Sandbur: 75
[8]; [23]
  Plant response rating, Sandbur: 75
[9]; [13]
  Plant response rating, Crabgrass, Large: 70
[9]; [14]
  Plant response rating, Crabgrass, Large: 75
[9]; [15]
  Plant response rating, Crabgrass, Large: 75
[9]; [23]
  Plant response rating, Crabgrass, Large: 80

## COCCCn1c(-c2cccc(F)c2)ncc(C(=O)C2=C(O)C3CCC(C3)C2=O)c1=O (stereo not drawn) [Compound 238]
[1]; [10]
  Plant response rating, Oat, Wild: 30
[1]; [11]
  Plant response rating, Oat, Wild: 35
[1]; 125 g ai/ha, scale 0 (no effect) to 100 (complete control), 13 to 15 days
  Plant response rating, Oat, Wild: 50
[1]; [12]
  Plant response rating, Oat, Wild: 60
[2]; [13]
  Plant response rating, Quackgrass: 5
[2]; [14]
  Plant response rating, Quackgrass: 5
[2]; [15]
  Plant response rating, Quackgrass: 30
[2]; [23]
  Plant response rating, Quackgrass: 40
[3]; [13]
  Plant response rating, Dallisgrass: 10
[3]; [14]
  Plant response rating, Dallisgrass: 65
[3]; [15]
  Plant response rating, Dallisgrass: 70
[3]; [23]
  Plant response rating, Dallisgrass: 75
[4]; 31 g ai/ha, scale 0 to 100
  Plant response rating, Groundsel: 100
[4]; [11]
  Plant response rating, Groundsel: 100
[4]; [21]
  Plant response rating, Groundsel: 100
[4]; [24]
  Plant response rating, Groundsel: 100
[5]; [13]
  Plant response rating, Johnsongrass: 60
[5]; [14]
  Plant response rating, Johnsongrass: 70
[5]; [15]
  Plant response rating, Johnsongrass: 75
[5]; [23]
  Plant response rating, Johnsongrass: 80
[6]; [22]
  Plant response rating, Barnyardgrass: 75
[6]; [14]
  Plant response rating, Barnyardgrass: 80
[6]; [15]
  Plant response rating, Barnyardgrass: 85
[6]; [23]
  Plant response rating, Barnyardgrass: 95
[7]; [13]
  Plant response rating, Ragweed: 70
[7]; [14]
  Plant response rating, Ragweed: 75
[7]; [15]
  Plant response rating, Ragweed: 75
[7]; [23]
  Plant response rating, Ragweed: 75
[8]; [13]
  Plant response rating, Sandbur: 50
[8]; [14]
  Plant response rating, Sandbur: 75
[8]; [15]
  Plant response rating, Sandbur: 75
[8]; [23]
  Plant response rating, Sandbur: 85
[9]; [13]
  Plant response rating, Crabgrass, Large: 50
[9]; [14]
  Plant response rating, Crabgrass, Large: 70
[9]; [15]
  Plant response rating, Crabgrass, Large: 75
[9]; [23]
  Plant response rating, Crabgrass, Large: 80
